The target in the test is T1, FXR (Homo sapiens, UniProt Q96RI1).
T1 construct: expressed in transfected cells; host or cells: CV-1 cells
T1 sequence (Q96RI1 1-486): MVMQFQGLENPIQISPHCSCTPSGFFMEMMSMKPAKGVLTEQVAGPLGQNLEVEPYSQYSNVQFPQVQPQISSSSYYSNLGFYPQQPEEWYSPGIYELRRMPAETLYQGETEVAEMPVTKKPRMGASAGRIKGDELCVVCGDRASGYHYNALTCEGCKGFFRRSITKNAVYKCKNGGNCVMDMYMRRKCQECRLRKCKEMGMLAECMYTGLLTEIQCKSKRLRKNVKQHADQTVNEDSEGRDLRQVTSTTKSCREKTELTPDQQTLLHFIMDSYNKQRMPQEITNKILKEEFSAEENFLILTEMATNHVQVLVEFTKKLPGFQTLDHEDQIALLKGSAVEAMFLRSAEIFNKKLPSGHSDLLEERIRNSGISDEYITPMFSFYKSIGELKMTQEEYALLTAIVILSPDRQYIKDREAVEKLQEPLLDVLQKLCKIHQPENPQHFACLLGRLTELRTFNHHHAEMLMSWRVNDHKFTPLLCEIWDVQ
T1 sequence (P19793 1-462 partner): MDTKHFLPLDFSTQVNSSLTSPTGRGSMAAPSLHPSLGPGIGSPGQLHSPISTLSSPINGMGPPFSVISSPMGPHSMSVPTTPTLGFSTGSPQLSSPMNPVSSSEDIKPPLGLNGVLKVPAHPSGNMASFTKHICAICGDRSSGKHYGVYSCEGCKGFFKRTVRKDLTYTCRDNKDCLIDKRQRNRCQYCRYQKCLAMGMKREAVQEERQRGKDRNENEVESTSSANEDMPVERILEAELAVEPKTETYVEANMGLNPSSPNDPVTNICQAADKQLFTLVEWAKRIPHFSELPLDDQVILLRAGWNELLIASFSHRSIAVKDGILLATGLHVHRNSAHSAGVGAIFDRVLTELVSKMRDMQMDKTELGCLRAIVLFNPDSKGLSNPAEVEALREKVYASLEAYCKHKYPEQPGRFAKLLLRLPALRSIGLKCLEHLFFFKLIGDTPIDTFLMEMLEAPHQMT
As to the kind of experiment: In Vitro FXR Assay (TK): TK-ECRE-luc reporter in transfected CV-1 cells. The conditions noted are these: CV-1 cells transfected with hFXR, hRXR, 18 h incubation, luminescence. It is filed as cell-based. Here is the method: Example B-2: In Vitro FXR Assay (TK)
CV-1 cells were seeded at a density of 2,000,000 cells in a T175 flask with DMEM+10% charcoal double-stripped FBS and incubated at 37° C. in 5% CO2 for 18 h (O/N).
After 18 h of incubation, the medium in the T175 flask was changed with fresh DMEM+10% charcoal super-stripped serum. In a polypropylene tube, 2500 μL OptiMEM (Life Technologies, Cat #31985-062) was combined with expression plasmids for hFXR, hRXR, TK-ECRE-luc and pCMX-YFP. The tube was then briefly vortexed and incubated at room temperature for 5 minutes. Transfection reagent (X-tremeGENE HP from Roche, Cat #06 366 236 001) was added to the OptiMEM/plasmid mixture vortexed and incubated at room temperature for 20 minutes. Following incubation, the transfection reagent/DNA mixture complex was added to cells in the T175 flask and the cells were incubated at 37° C. in 5% CO2 for 18 h (O/N).
Compounds were serially diluted in DMSO and added to transfected CV-1 cells. The cells were then incubated for 18 hrs. The next day cells were lysed and examined for luminescence.

pEC50: −log10 of the molar value. Some results are limits rather than exact numbers.

As usually defined, the pEC50 is the negative decadic logarithm of the EC50, by convention in mol/L. Low values mean a high EC50, high ones a low EC50. `COC(=O)/C=C/c1cccc(N(Cc2ccc(-c3ccc(N(C)C)cc3)cc2)C(=O)C2CCC([S+](C)[O-])CC2)c1` (stereo not drawn) [13.20, (E)-Methyl 3-(3-(N-((4′-(dimethylamino)-[1,1′-biphenyl]-4-yl)methyl)-4-(methylsulfinyl)cyclohexanecarboxamido)phenyl)acrylate]: the pEC50 was 5.00 to 6.00.

Consider `COC(=O)/C=C/c1cccc(N(Cc2ccc(-c3ccc(N(C)C)cc3)cc2)C(=O)c2ccc(O)cc2)c1` [13.21, (E)-Methyl 3-(3-(N-((4′-(dimethylamino)-[1,1′-biphenyl]-4-yl)methyl)-4-hydroxybenzamido)phenyl)acrylate], for which the pEC50 is at least 6.00.

Molecule `COC(=O)/C=C/c1cccc(N(Cc2ccc(-c3ccc(N(C)C)cc3)cc2)C(=O)c2ccc(OCCO)cc2)c1` [13.22, (E)-Methyl 3-(3-(N-((4′-(dimethylamino)-[1,1′-biphenyl]-4-yl)methyl)-4-(2-hydroxyethoxy)benzamido)phenyl)acrylate] had a pEC50 of at least 6.00.

`COC(=O)/C=C/c1cccc(N(Cc2ccc(-c3ccc(N(C)C)cc3)cc2)C(=O)C(C)(C)CO)c1` [13.23, (E)-Methyl 3-(3-(N-((4′-(dimethylamino)-[1,1′-biphenyl]-4-yl)methyl)-3-hydroxy-2,2-dimethylpropanamido)phenyl)acrylate]: the pEC50 is 5.00 to 6.00.

Molecule `COC(=O)/C=C/c1cccc(N(Cc2ccc(-c3ccc(N(C)C)cc3)cc2)C(=O)C(C)(C)CCl)c1` [13.24, (E)-Methyl 3-(3-(3-chloro-N-((4′-(dimethylamino)-[1,1′-biphenyl]-4-yl)methyl)-2,2-dimethylpropanamido)phenyl)acrylate] gave a pEC50 of at least 6.00.

`COC(=O)/C=C/c1cccc(N(Cc2ccc(-c3ccc(N(C)C)cc3)cc2)C(=O)C2CCCCO2)c1` (stereo not drawn) [17.1, (E)-Methyl 3-(3-(N-((4′-(dimethylamino)-[1,1′-biphenyl]-4-yl)methyl)tetrahydro-2H-pyran-2-carboxamido)phenyl)acrylate]: the pEC50 was at least 6.00.

Consider `COC(=O)/C=C/c1cccc(N(Cc2ccc(-c3ccc(N(C)C)cc3)cc2)C(=O)C2COCCO2)c1` (stereo not drawn) [17.2, (E)-Methyl 3-(3-(N-((4′-(dimethylamino)-[1,1′-biphenyl]-4-yl)methyl)-1,4-dioxane-2-carboxamido)phenyl)acrylate], for which the negative-log EC50 (pEC50) was 5.00 to 6.00.

`COC(=O)/C=C/c1cccc(N(Cc2ccc(-c3ccc(N(C)C)cc3)cc2)C(=O)C2CCCOC2)c1` (stereo not drawn) [17.3, (E)-Methyl 3-(3-(N-((4′-(dimethylamino)-[1,1′-biphenyl]-4-yl)methyl)tetrahydro-2H-pyran-3-carboxamido)phenyl)acrylate] showed a pEC50 of 5.00 to 6.00.

`COC(=O)/C=C/c1cccc(N(Cc2ccc(-c3ccc(OC)c(C)c3)cc2)C(=O)c2ccncc2)c1` [62.1, (E)-Methyl 3-(3-(N-((4′-methoxy-3′-methyl-[1,1′-biphenyl]-4-yl)methyl)isonicotinamido)phenyl)acrylate] gave a pEC50 of 5.00 to 6.00.

`COC(=O)/C=C/c1cccc(N(Cc2ccc(-c3cccc(C(=O)OC)c3)cc2)C(=O)C2CCCCC2)c1` [62.2, (E)-Methyl 4′-((N-(3-(3-methoxy-3-oxoprop-1-en-1-yl)phenyl)cyclohexanecarboxamido)methyl)-[1,1′-biphenyl]-3-carboxylate] showed a pEC50 of 5.00 to 6.00.

Turning to `COC(=O)/C=C/c1cccc(N(Cc2ccc(-c3ccc(C(=O)OC)cc3)cc2)C(=O)C2CCCCC2)c1` [62.3, (E)-Methyl 4′-((N-(3-(3-methoxy-3-oxoprop-1-en-1-yl)phenyl)cyclohexanecarboxamido)methyl)-[1,1′-biphenyl]-4-carboxylate], the pEC50 is 5.00 to 6.00.

The molecule `COC(=O)/C=C/c1cccc(N(Cc2ccc(-c3ccc(S(C)(=O)=O)cc3)cc2)C(=O)C2CCCCC2)c1` [62.4, (E)-Methyl 3-(3-(N-((4′-(methylsulfonyl)-[1,1′-biphenyl]-4-yl)methyl)cyclohexanecarboxamido)phenyl) acrylate] showed a negative logarithm of the EC50 (pEC50) of 5.00 to 6.00.

For `COC(=O)/C=C/c1cccc(N(Cc2ccc(-c3ccc(OC)c(C)c3)cc2)C(=O)C2CCN(C(=O)OC(C)(C)C)CC2)c1` [62.5, (E)-tert-Butyl 4-(((4′-methoxy-3′-methyl-[1,1′-biphenyl]-4-yl)methyl)(3-(3-methoxy-3-oxoprop-1-en-1-yl)phenyl)carbamoyl)piperidine-1-carboxylate], the pEC50 was 5.00 to 6.00.

On to `COC(=O)/C=C/c1cccc(N(Cc2ccc(-c3cccc(CO)c3)cc2)C(=O)C2CCCCC2)c1` [62.6, (E)-Methyl 3-(3-(N-((3′-(hydroxymethyl)-[1,1′-biphenyl]-4-yl)methyl)cyclohexanecarboxamido)phenyl) acrylate], for which the pEC50 is 5.00 to 6.00.

As for `COC(=O)/C=C/c1cccc(N(Cc2ccc(-c3ccc(CO)cc3)cc2)C(=O)C2CCCCC2)c1` [62.7, (E)-Methyl 3-(3-(N-((4′-(hydroxymethyl)-[1,1′-biphenyl]-4-yl)methyl)cyclohexanecarboxamido)phenyl) acrylate], the negative-log EC50 (pEC50) is below 5.00.

In turn, `COC(=O)/C=C/c1cccc(N(Cc2ccc(-c3cccc(S(C)(=O)=O)c3)cc2)C(=O)C2CCCCC2)c1` [62.8, (E)-Methyl 3-(3-(N-((3′-(methylsulfonyl)-[1,1′-biphenyl]-4-yl)methyl)cyclohexanecarboxamido)phenyl) acrylate] gave a negative-log EC50 (pEC50) below 5.00.

In the case of `COC(=O)/C=C/c1cccc(N(Cc2ccc(-c3ccc4c(c3)OCO4)cc2)C(=O)C2CCCCC2)c1` [62.9, (E)-Methyl 3-(3-(N-(4-(benzo[d][1,3]dioxol-5-yl)benzyl)cyclohexanecarboxamido)phenyl) acrylate], the pEC50 was at least 6.00.

`COC(=O)/C=C/c1cccc(N(Cc2ccc(-c3ccc(OC)c(Cl)c3)cc2)C(=O)C2CCCCC2)c1` [62.10, (E)-Methyl 3-(3-(N-((3′-chloro-4′-methoxy-[1,1′-biphenyl]-4-yl)methyl)cyclohexanecarboxamido)phenyl) acrylate] showed a pEC50 of at least 6.00.

Molecule `COC(=O)/C=C/c1cccc(N(Cc2ccc(-c3ccc(N(C)C)cc3)c(C#N)c2)C(=O)C2CCCCC2)c1` [62.11, (E)-Methyl 3-(3-(N-((2-cyano-4′-(dimethylamino)-[1,1′-biphenyl]-4-yl)methyl)cyclohexanecarboxamido)phenyl) acrylate] gave a pEC50 of at least 6.00.

On to `COC(=O)/C=C/c1cccc(N(Cc2ccc(-c3ccc(N(C)C)cc3)cc2C#N)C(=O)C2CCCCC2)c1` [62.12, (E)-Methyl 3-(3-(N-((3-cyano-4′-(dimethylamino)-[1,1′-biphenyl]-4-yl)methyl)cyclohexanecarboxamido)phenyl) acrylate], for which the pEC50 is 5.00 to 6.00.

For the molecule `CCc1cc(CN(C(=O)C2CCCCC2)c2cccc(/C=C/C(=O)OC)c2)ccc1-c1ccc(N(C)C)cc1` [62.13, (E)-Methyl 3-(3-(N-((4′-(dimethylamino)-2-ethyl-[1,1′-biphenyl]-4-yl)methyl)cyclohexanecarboxamido)phenyl) acrylate], the pEC50 is 5.00 to 6.00.

With `CCc1cc(-c2ccc(N(C)C)cc2)ccc1CN(C(=O)C1CCCCC1)c1cccc(/C=C/C(=O)OC)c1` [62.14, (E)-Methyl 3-(3-(N-((4′-(dimethylamino)-3-ethyl-[1,1′-biphenyl]-4-yl)methyl)cyclohexanecarboxamido)phenyl) acrylate], the pEC50 is at least 6.00.

In turn, `COC(=O)/C=C/c1cccc(N(Cc2ccc(-c3ccc(OC)c(C)c3)cc2)C(=O)C2CCNCC2)c1` [62.15, (E)-Methyl 3-(3-(N-((4′-methoxy-3′-methyl-[1,1′-biphenyl]-4-yl)methyl)piperidine-4-carboxamido)phenyl)acrylate] showed a pEC50 below 5.00.

The molecule `COC(=O)/C=C/c1cccc(N(Cc2ccc(-c3ccc(OC)c(C)c3)cc2)C(=O)C2CCN(C(C)=O)CC2)c1` [62.16, (E)-Methyl 3-(3-(1-acetyl-N-((4′-methoxy-3′-methyl-[1,1′-biphenyl]-4-yl)methyl)piperidine-4-carboxamido)phenyl)acrylate] showed a pEC50 of 5.00 to 6.00.

The record behind these values is US10626081B2, “Farnesoid X receptor agonists and uses thereof” (Metacrine, Inc., priority 2015, dated 2020).
